According to patent US7803829B2, “Use of a kinase inhibitor for the treatment of particular resistant tumors” (Nerviano Medical Sciences S.r.l., priority 2006, dated 2010):
Numbering of substitutions follows the chain as printed. “Also recorded” adds a separate entry of the source.

Columns and labels:
[1] = target: T1, T315I ABL mutant kinase domain (Homo sapiens, UniProt P00519, T315I); test: Indolinone probe titration (fluorescence), probe of 3.1; format: binding; conditions: Table 1; 10 nM enzyme, probe 3 μM to 0
T1 construct: ABL kinase domain (corresponding to residues 229-512); GST (N, cleaved yes); PreScission cleavage site (N, cleaved yes); made in house; host or cells: High5 insect cells (baculovirus)
T1 sequence (P00519 229-512 T315I): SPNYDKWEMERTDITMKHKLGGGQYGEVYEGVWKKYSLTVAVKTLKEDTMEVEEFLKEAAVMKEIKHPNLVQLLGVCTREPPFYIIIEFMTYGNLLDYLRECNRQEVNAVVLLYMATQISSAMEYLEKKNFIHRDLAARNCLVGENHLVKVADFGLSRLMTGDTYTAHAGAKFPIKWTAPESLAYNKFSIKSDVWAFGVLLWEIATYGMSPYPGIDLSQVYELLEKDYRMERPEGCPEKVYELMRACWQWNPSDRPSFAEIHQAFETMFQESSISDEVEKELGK
Experimental: (§1) Data analysis was performed using the Dynafit software.

[2] = target: T2, wild-type ABL kinase domain (Homo sapiens, UniProt P00519); test: as above; format: binding; conditions: Table 1; 10 nM enzyme, probe 3 μM to 0
T2 construct: ABL kinase domain (corresponding to residues 229-512); GST (N, cleaved yes); PreScission cleavage site (N, cleaved yes); made in house; host or cells: High5 insect cells (baculovirus)
T2 sequence (P00519 229-512): T1 sequence (P00519 229-512 T315I) with I87T
Experimental: as §1

[3] = target: T3, Wild-type ABL 0P (unphosphorylated) kinase domain (Homo sapiens, UniProt P00519); test: as above; format: binding; conditions: Table 1; 10 nM enzyme, probe 3 μM to 0
T3 construct: ABL kinase domain (corresponding to residues 229-512); GST (N, cleaved yes); PreScission cleavage site (N, cleaved yes); made in house; host or cells: High5 insect cells (baculovirus)
T3 sequence (P00519 229-512): T1 sequence (P00519 229-512 T315I) with I87T
Experimental: as §1

[4] = target: T1, T315I ABL mutant kinase domain; test: ATP site-dependent displacement assay, indolinone probe of 3.1; format: binding
Excerpt: (§2) KD values, are the average of three independent experiments.

[5] = target: T2, wild-type ABL kinase domain; test: as above; format: binding
Excerpt: as §2

[6] = target: T3, Wild-type ABL 0P (unphosphorylated) kinase domain; test: as above; format: binding
Excerpt: as §2

[7] = target: T1, T315I ABL mutant kinase domain; test: ATP site-dependent displacement assay, indolinone probe of 3.2; format: binding
Excerpt: as §2

[8] = target: T2, wild-type ABL kinase domain; test: as above; format: binding
Excerpt: as §2

[9] = target: T3, Wild-type ABL 0P (unphosphorylated) kinase domain; test: as above; format: binding
Excerpt: as §2

[10] = target: T4, BCR-ABL in K-562 leukemia cells (Homo sapiens, UniProt P00519); test: Immunoblotting of K-562 leukemia cells, inhibition of BCR-ABL signaling; format: cell-based; conditions: K-562 cells treated for one hour
T4 construct: endogenously expressing BCR-ABL cells; endogenous in cells; host or cells: K-562; the other entry of the earlier key: BCR (P11274, Breakpoint cluster region protein)

[11] = target: T5, T315I ABL mutant in HCT-116 transfected cells (Homo sapiens, UniProt P00519, T315I); test: Immunoblotting of transfected HCT-116 cells (pY412-ABL); format: cell-based; conditions: 5 μM, HCT-116 transfected with T315I mutant construct, FIG. 3
T5 construct: ABL cDNA (corresponding to residues 27-1130); expressed in transfected cells; host or cells: HCT-116
Experimental: (§3) Amplification was performed using the forward oligonucleotide:
Oligonucleotide used in the mutagenesis reaction was:
(§4) Immunoblotting was performed according to standard methods.

[12] = target: T6, wild-type ABL in HCT-116 transfected cells (Homo sapiens, UniProt P00519); test: as above; format: cell-based; conditions: 5 μM, HCT-116 transfected with wild-type construct, FIG. 3
T6 construct: ABL cDNA (corresponding to residues 27-1130); expressed in transfected cells; host or cells: HCT-116
Experimental: as §3, §4

[13] = target: T1, T315I ABL mutant kinase domain; test: Indolinone probe titration (fluorescence), probe of 3.2; format: binding; conditions: Table 4
Experimental: (§5) The titration experiment was performed as follows: 10 nM ABL kinase domains (wild-type or T315I mutant), indolinone concentration from 3 μM to 0, with dilution steps 1:1.5 in 50 mM TrisHCl, pH 7.5, 150 mM NaCl, 5 mM MgCl2, 1 mM MnCl2, 1 mM DTT, 1% DMSO, 3 μM NaaVO4(buffer 1).

[14] = target: T2, wild-type ABL kinase domain; test: as above; format: binding; conditions: Table 4
Experimental: as §5

[15] = target: T3, Wild-type ABL 0P (unphosphorylated) kinase domain; test: as above; format: binding; conditions: Table 4
Experimental: as §5

[16] = Tables 2 and 3, probe 3.1, 3 μM highest inhibitor concentration
[17] = Table 2, probe 3.1, 3 μM highest inhibitor concentration
[18] = Tables 5 and 6, probe 3.2, 3 μM highest inhibitor concentration, average of three experiments
[19] = Table 5, probe 3.2, 3 μM highest inhibitor concentration, average of three experiments

CCN(CC)CCNC(=O)c1c(C)[nH]c(/C=C2\C(=O)Nc3ccc(S(=O)(=O)Cc4ccccc4)cc32)c1C [2,4-dimethyl-5-[2-oxo-5-phenylmethanesulfonyl-1,2-dihydro-indol-(3Z)-ylidenemethyl]-1H-pyrrole-3-carboxylic acid (2-diethylamino-ethyl)-amide]
Kd [1]: 140 ± 70 nM | Kd [2]: 40 ± 20 nM | Kd [3]: 50 ± 30 nM

Nc1ncnc2c1ncn2[C@@H]1O[C@H](COP(=O)(O)OP(=O)(O)OP(O)(O)=S)[C@@H](O)[C@H]1O [ATPγS, reference compound]
Kd ([4]; Table 1 validation, probe 3.1 at 0.42 μM, highest conc. ATPγS 250 μM, Imatinib 10 μM, average of three experiments): 2000 ± 210 nM | Kd ([5]; Table 1 validation, probe 3.1 at 0.12 μM, highest conc. ATPγS 250 μM, Imatinib 10 μM, average of three experiments): 9000 ± 1900 nM | Kd ([6]; Table 1 validation, probe 3.1 at 0.15 μM, highest conc. ATPγS 250 μM, Imatinib 10 μM, average of three experiments): 9500 ± 3400 nM | Kd ([7]; Table 4 validation, probe 3.2 at 0.2 μM): 2610 ± 900 nM | Kd ([8]; Table 4 validation, probe 3.2 at 3.3 μM): 4800 ± 1000 nM | Kd ([9]; Table 4 validation, probe 3.2 at 2 μM): 6600 ± 1600 nM

CC(C)(NC(=O)c1cc2c(NC(=O)c3ccc(CN4CCCCC4)cc3)n[nH]c2s1)c1ccccc1 [Compound 1, 3-(4-Piperidin-1-ylmethyl-benzoylamino)-1H-thieno[2,3-c]pyrazole-5-carboxylic acid (1-methyl-1-phenyl-ethyl)-amide]
effect on Src [10]: no effect on Src | inhibition of ABL auto-phosphorylation of Y412 ([10]; FIG. 2): inhibit phosphorylation of Y412 | inhibition of phosphorylation of downstream mediators Stat-5 and Crkl ([10]; FIG. 2): inhibit | Kd [4, 16]: 21 ± 6 nM | Kd [5, 17]: 250 ± 75 nM | Kd [6, 17]: 240 ± 30 nM | Kd [7, 18]: 37 ± 13 nM | Kd [8, 19]: 310 ± 26 nM | Kd [9, 19]: 278 ± 122 nM | inhibitory activity on ABL (pY412-ABL immunoblot) [11]: capable of inhibiting; also recorded: strong inhibitory activity | inhibitory activity on ABL (pY412-ABL immunoblot) [12]: capable of inhibiting; also recorded: strong inhibitory activity

CC(C)(NC(=O)c1cc2c(NC(=O)c3ccc(CN4CCCCC4)cc3)n[nH]c2s1)c1ccccc1F [Compound 2, 3-(4-Piperidin-1-ylmethyl-benzoylamino)-1H-thieno[2,3-c]pyrazole-5-carboxylic acid [1-(2-fluoro-phenyl)-1-methyl-ethyl]-amide]
Kd [4, 16]: 15 ± 4 nM | Kd [5, 17]: 177 ± 32 nM | Kd [6, 17]: 107 ± 21 nM | Kd [7, 18]: 15 ± 4 nM | Kd [8, 19]: 177 ± 32 nM | Kd [9, 19]: 107 ± 21 nM

CC(C)(NC(=O)c1cc2c(NC(=O)c3ccc(CN4CCOCC4)cc3)n[nH]c2s1)c1ccccc1F [Compound 3, 3-(4-Morpholin-4-ylmethyl-benzoylamino)-1H-thieno[2,3-c]pyrazole-5-carboxylic acid [1-(2-fluoro-phenyl)-1-methyl-ethyl]-amide]
Kd [4, 16]: 47 ± 15 nM | Kd [5, 17]: 370 ± 160 nM | Kd [6, 17]: 330 ± 150 nM | Kd [7, 18]: 70 ± 22 nM | Kd [8, 19]: 553 ± 136 nM | Kd [9, 19]: 350 ± 50 nM

CN1CCC(Oc2ccc(C(=O)Nc3n[nH]c4sc(C(=O)NC(C)(C)c5ccccc5)cc34)cc2)CC1 [Compound 4, 3-[4-(1-Methyl-piperidin-4-yloxy)-benzoylamino]-1H-thieno[2,3-c]pyrazole-5-carboxylic acid (1-methyl-1-phenyl-ethyl)-amide]
Kd [4, 16]: 6 ± 3 nM | Kd [7, 18]: 2.7 ± 1 nM

CN1CCN(c2ccc(C(=O)Nc3n[nH]c4sc(C(=O)NC(C)(C)c5ccccc5)cc34)cc2)CC1 [Compound 5, 3-[4-(4-Methyl-piperazin-1-yl)-benzoylamino]-1H-thieno[2,3-c]pyrazole-5-carboxylic acid (1-methyl-1-phenyl-ethyl)-amide]
Kd [4, 16]: 4.1 ± 2 nM | Kd [7, 18]: 5.3 ± 4 nM

CC(C)(NC(=O)c1cc2c(NC(=O)c3ccc(CN4CCCCC4)cc3)n[nH]c2s1)c1ccc(F)cc1 [Compound 6, 3-(4-Piperidin-1-ylmethyl-benzoylamino)-1H-thieno[2,3-c]pyrazole-5-carboxylic acid [1-(4-fluoro-phenyl)-1-methyl-ethyl]-amide]
Kd [4, 16]: 14 ± 5 nM | Kd [7, 18]: 17.4 ± 6 nM

CC(C)NCc1ccc(C(=O)Nc2n[nH]c3sc(C(=O)NC(C)(C)c4ccccc4F)cc23)cc1 [Compound 7]
Kd [4, 16]: 20 ± 2 nM | Kd [7, 18]: 16.8 ± 3 nM

CN1CCN(c2ccc(C(=O)Nc3n[nH]c4sc(C(=O)NC(C)(C)c5ccccc5F)cc34)cc2)CC1 [Compound 8, 3-[4-(4-Methyl-piperazin-1-yl)-benzoylamino)-1H-thieno[2,3-c]pyrazole-5-carboxylic acid [1-(2-fluoro-phenyl)-1-methyl-ethyl]-amide]
Kd [4, 16]: 12 ± 6 nM | Kd [7, 18]: 8.3 ± 1.5 nM

CC(C)(NC(=O)c1cc2c(NC(=O)c3ccc(CN4CCCCC4)cc3)n[nH]c2s1)c1ccccc1Cl [Compound 9, 3-(4-Piperidin-1-ylmethyl-benzoylamino)-1H-thieno[2,3-c]pyrazole-5-carboxylic acid [1-(2-chloro-phenyl)-1-methyl-ethyl]-amide]
Kd [4, 16]: 14 ± 3.5 nM | Kd [7, 18]: 18 ± 3.4 nM

CN1CCN(Cc2ccc(C(=O)Nc3n[nH]c4sc(C(=O)NC(C)(C)c5ccccc5)cc34)cc2)CC1 [Compound 10, 3-[4-(4-Methyl-piperazin-1-ylmethyl)-benzoylamino]-1H-thieno[2,3-c]pyrazole-5-carboxylic acid (1-methyl-1-phenyl-ethyl)-amide]
Kd [4, 16]: 8.4 ± 4 nM | Kd [7, 18]: 9.3 ± 2.5 nM

CC(C)NCc1ccc(C(=O)Nc2n[nH]c3sc(C(=O)NC(C)(C)c4ccccc4)cc23)cc1 [Compound 11, 3-[4-(Isopropylamino-methyl)benzoylamino)-1H-thieno[2,3-c]pyrazole-5-carboxylic acid (1-methyl-1-phenyl-ethyl)-amide]
Kd [4, 16]: 12 ± 2.5 nM | Kd [7, 18]: 11 ± 2.6 nM

CC(C)(NC(=O)c1cc2c(NC(=O)c3ccc(N4CCOCC4)cc3)n[nH]c2s1)c1ccccc1 [Compound 12, 3-(4-Morpholin-4-yl-benzoylamino)-1H-thieno[2,3-c]pyrazole-5-carboxylic acid (1-methyl-1-phenyl-ethyl)-amide]
Kd [4, 16]: 16 ± 3.7 nM | Kd [7, 18]: 11.7 ± 3.8 nM

CC(C)(NC(=O)c1cc2c(NC(=O)c3ccc(CN4CCCCC4)cc3)n[nH]c2s1)c1cccc(F)c1 [Compound 13, 3-(4-Piperidin-1-ylmethyl-benzoylamino)-1H-thieno[2,3-c]pyrazole-5-carboxylic acid [1-(3-fluoro-phenyl)-1-methyl-ethyl]-amide]
Kd [4, 16]: 10 ± 4.6 nM | Kd [7, 18]: 6.3 ± 3.3 nM

CCN(CC)CCNC(=O)c1c(C)[nH]c(/C=C2\C(=O)Nc3ccc(S(=O)(=O)NC)cc32)c1-c1ccc(F)cc1F [N-[2-(diethylamino)ethyl]-4-(2,4-difluorophenyl)-2-methyl-5-((Z)-{5-[(methylamino)sulfonyl]-2-oxo-1,2-dihydro-3H-indol-3-ylidene}methyl)-1H-pyrrole-3-carboxamide]
Kd [13]: 20 ± 8 nM | Kd [14]: 330 ± 120 nM | Kd [15]: 200 ± 100 nM
